From US20210393621A1, “COMBINATION SEROTONIN SPECIFIC REUPTAKE INHIBITOR AND SEROTONIN 1A RECEPTOR PARTIAL AGONIST FOR REDUCING L-DOPA-INDUCED DYSKINESIA” (The Research Foundation for The State University of new York, priority 2018, published 2021)
Entries after “also recorded” stand apart in the source; their conditions may differ. Like-named read-outs stand apart in the source and are kept apart here.

Columns and labels:
5HT2A = conditions: rat cerebral cortex; read-out: affinity Ki; cited from earlier work
[1] = tested on: L-DOPA-primed 6-OHDA-lesioned rats; test: Experiment 3: AIMs with 5-HT1AR or 5-HT1BR antagonist before Vilazodone and L-DOPA; format: in vivo, Sprague-Dawley rats; conditions: then VZD 0 or 10 mg/kg, then L-DOPA 6 mg/kg, s.c.
Protocol: In each study, the LD-primed rats received (FIG. 4A) the 5-HT1AR antagonist WAY100635 [WAY; 0 or 0.5 mg/kg, s.c.] or (FIG. 4B) the 5-HT1BR antagonist NAS [NAS; 0 or 0.3 mg/kg, s.c.]) 5 min prior to VZD (0 or 10 mg/kg, s.c.) injected 5 min prior to LD (6 mg/kg, s.c.) in a within-subjects counterbalanced design. ALO AIMs were evaluated and are shown for every 10 min for 3 h after LD administration.
All 6-OHDA-lesioned rats (n=17) were tested on the FAS prior to treatment regimens to establish baseline motor performance. Three-weeks post-surgery, all rats were primed with L-DOPA (6 mg/kg, s.c.) for 14 days.
Beginning 10 min post-treatment, a trained and blinded observer assigned a severity score (0-4) to each of the ALO AIMs based on 1 min ratings every 10 min for 3 h: 0, not present; 1, present from 1-29 s; 2, present 30-59 s; 3, present all 60 s, but interruptible by a cylinder tap; 4, present 60 s and not interruptible by a cylinder tap.

[2] = tested on: extracellular 5-HT, dopamine and norepinephrine; conditions: cited from earlier work; for extracellular dopamine and norepinephrine: rat brain, vilazodone 1 and 10 mg/kg; for maximal increase of extracellular 5-HT: rats, acute systemic injection, measured 3 h after injection
DRN 5-HT neurons = test: Example 3: in vivo single-unit recordings of DRN 5-HT neurons; set-up: species or system rats
[3] = tested on: unilateral 6-OHDA-lesioned rats; test: Example 2: L-DOPA-induced dyskinesias (LIDs) scoring; format: in vivo, Sprague-Dawley rats
Protocol: 6-OHDA-induced dopaminergic lesions: Adult male Sprague-Dawley rats were randomly assigned to groups receiving either a 6-OHDA or sham lesion. […] [[…] 2019]. […] Rats were treated for 5 consecutive days/week (Mon-Fri), for 2 weeks. […] All rats were evaluated three times per week for the presence of L-DOPA-induced dyskinesias (LIDs) (Wed-Fri) and once for the stepping test (Tue). […] Scores were given over 1 min epochs and classified as axial, limb, orolingual and locomotive. […] Arrows=inhibitory input; dashed arrows=compromised function. The severity of each LID was scored using a standard scale. Each dyskinetic behavior was given an intensity and frequency score, which were then multiplied. The average sum of the products of each LID was determined in each animal.

[4] = tested on: unilateral 6-OHDA-lesioned rats; test: Example 2: stepping test; format: in vivo, Sprague-Dawley rats; conditions: vilazodone 10 mg/kg or escitalopram 12.5 mg/kg + L-DOPA 5 mg/kg; 60 minutes post L-DOPA
Protocol: 6-OHDA-induced dopaminergic lesions: Adult male Sprague-Dawley rats were randomly assigned to groups receiving either a 6-OHDA or sham lesion. All rats received desipramine (10 mg/kg i.p.) 30 min prior to surgery to prevent the lesioning of norepinephrine neurons by 6-OHDA. A single injection of 6-OHDA (8 μg of 6-OHDA free base in 4 μl of 0.1% ascorbic acid) was delivered into the right medial forebrain bundle (coordinates taken from bregma: −4.3 mm AP, 1.6 mm ML, −8.3 mm DV). The same experimental treatment was performed for the sham-operated rats using vehicle (4 μl of 0.1% ascorbic acid). A standard stepping test was used to evaluate the effectiveness of the 6-OHDA lesion.
Rats were treated for 5 consecutive days/week (Mon-Fri), for 2 weeks. On the second day of each week, stepping tests were performed prior to drug administration, and 60 minutes post L-DOPA treatment.

5-HT1A receptor = target: T1, 5-HT1A receptor (Homo sapiens, UniProt P08908); set-up: expressed in transfected cells; host or cells: SF9 cells; conditions: 5-HT1A receptor expressed in SF9 cells; cited from earlier work
T1 sequence (P08908 1-422): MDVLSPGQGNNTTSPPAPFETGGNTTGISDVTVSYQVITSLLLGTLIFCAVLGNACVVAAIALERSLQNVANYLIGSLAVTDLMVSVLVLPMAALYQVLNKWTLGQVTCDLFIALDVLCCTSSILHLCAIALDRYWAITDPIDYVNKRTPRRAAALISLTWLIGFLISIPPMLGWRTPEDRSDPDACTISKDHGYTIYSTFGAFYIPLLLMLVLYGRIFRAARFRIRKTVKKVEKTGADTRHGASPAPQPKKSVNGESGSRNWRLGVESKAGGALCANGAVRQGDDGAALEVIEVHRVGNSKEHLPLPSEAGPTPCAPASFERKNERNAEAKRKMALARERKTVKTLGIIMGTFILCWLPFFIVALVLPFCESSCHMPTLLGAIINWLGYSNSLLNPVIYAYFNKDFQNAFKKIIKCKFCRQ

[5] = tested on: 6-OHDA-lesioned hemi-parkinsonian rats; test: Experiment 2: forepaw adjusting steps (FAS); format: in vivo, Sprague-Dawley rats; conditions: L-DOPA-naive rats; VZD 0, 10 or 20 mg/kg + L-DOPA 6 mg/kg; Days 1, 8, 15, 22
Protocol: […].). All VZD injections were administered 5 min prior to LD. […] AIMs values expressed are the median sum of axial, limb, and orolingual (ALO) behaviors. […] Values are expressed as medians [±median absolute difference (M.A.D.)]. […] Forepaw adjusting steps (FAS): The FAS test is a measure of forelimb akinesia performed according to previous protocols (Bishop et al., 2012; Chang et al., 1999). Data are presented as mean percent intact stepping where the sum of the total steps with the lesioned forepaw was divided by the total steps with the unlesioned forepaw multiplied by 100. Lower percent intact scores indicate greater forelimb akinesia. Prior to baseline, rats received 2 acclimation periods. On-treatment FAS was performed 60 min post-L-DOPA.

[6] = in vivo; cited from earlier work
[7] = tested on: striatal and raphe tissue monoamines; test: Experiment 1: HPLC of tissue monoamines and metabolites in striatum and dorsal raphe nucleus; conditions: for 5-HIAA / 5-HT / 5-HT Turnover / DA / DA Turnover / DOPAC: Striatum, VZD(0) + LD(6) mg/kg, 60 min post-LD
Protocol: Three-weeks post-lesion, animals were divided into 2 equally disabled groups, measured by forepaw adjusting steps (FAS, see below). One group (n=8) began receiving 14 days of daily vehicle (0.9% NaCl+0.1% ascorbic acid) and the other (n=22) received L-DOPA methyl ester (6 mg/kg, s.c.; Sigma)+DL-serine 2-(2,3,4-trihydroxybenzyl) hydrazine hydrochloride (benserazide; 15 mg/kg, s.c.; Sigma), hereafter L-DOPA, dissolved in vehicle at a volume of 1 mg/kg. Treatment persisted for 14 days to produce stable AIMs expression (Putterman et al., 2007; Conti et al., 2014). Thereafter, L-DOPA-treated animals with Axial, Limb, and Orolingual (ALO) AIMs (see description below, FIG. 1A)<30 were excluded from the study and the remaining L-DOPA-treated animals were divided into 3 equally dyskinetic groups. […] Daily injections continued over 23 days, with behavior assayed on Days 15, 22, 29, and 36. On Day 37, animals were killed 60 min post-treatment Left and right dorsal striata and DRN were dissected and flash frozen for HPLC analyses.
High-performance liquid chromatography (HPLC): HPLC, a method for semi-automated catecholamine analysis with coulometric detection, was performed according to prior protocols (Bishop et al., 2009) to determine the tissue levels of monoamines, their metabolites, and monoamine turnover in the striatum and DRN. The limit of detection for DOPAC, DA, 5-hydroxyindoleacetic acid (5-HIAA) and 5-HT was 10^−10 M. Final oxidation current values were plotted on a standard curve from 10^−6 M to 10^−9 M and expressed as pg of monoamine or metabolite per mg of tissue unless otherwise specified.
On the final treatment day, animals were sacrificed 60 min post-LD treatment and left and right striata and dorsal raphe nucleus (DRN) were collected for high performance liquid chromatography (HPLC) analysis. Values (means±standard mean error) are expressed as picograms of monoamine or metabolite per milligram wet tissue weight. Turnover estimates were determined by dividing a subjects metabolite value by its corresponding monoamine. Differences were assessed by a 2×4 (lesion×treatment) ANOVA, followed by Fisher's LSD post-hocs when appropriate. *p<0.01 vs lesion vs intact; +p<0.05 vs all; ^p<0.05 vs VZD (0)+LD (0); #p<0.05 vs VZD (0)+LD (6)

[8] = tested on: 6-OHDA-lesioned hemi-parkinsonian rats; test: Experiment 1: forepaw adjusting steps (FAS); format: in vivo, Sprague-Dawley rats; conditions: L-DOPA-primed rats; VZD 0, 10 or 20 mg/kg + L-DOPA 6 mg/kg; 60 min post-L-DOPA
Excerpt: Conti et al., 2014). […] Forepaw adjusting steps (FAS): The FAS test is a measure of forelimb akinesia performed according to previous protocols (Bishop et al., 2012; Chang et al., 1999). Data are presented as mean percent intact stepping where the sum of the total steps with the lesioned forepaw was divided by the total steps with the unlesioned forepaw multiplied by 100. Lower percent intact scores indicate greater forelimb akinesia. Prior to baseline, rats received 2 acclimation periods. On-treatment FAS was performed 60 min post-L-DOPA.

[9] = tested on: striatal c-Fos, PPD, PPE, PPT and 5-HT1AR mRNA; test: Experiment 2: real-time RT-PCR of striatal gene expression
[10] = dry and wet AMD; patients taking versus not taking L-DOPA; cited from earlier work
[11] = lesioned striata, VZD 0, 10 or 20 mg/kg + L-DOPA 6 mg/kg daily, day 23, 60 min post-injection

Compound: O=S1(=O)N(CCN2CC=C(c3c[nH]c4cc(F)ccc34)CC2)c2cccc3c2N1CCC3 [LY367265]
- Ki (5HT2A): 490 nM

Compound: C1=C(CN2CCOCC2)COc2c1cccc2OC[C@H]1CNCCO1.CS(=O)(=O)O [NAS-181, (R)-(+)-2-(3-morpholinomethyl-2H-chromen-8-yl) oxymethyl-morpholine methane-sulfonate]
- ALO AIMs, 5-HT1BR study ([1]; NAS-181 0 or 3.0 mg/kg): did not significantly alter AIMs or their reduction by Vilazodone

Compound: c1ccc2c(c1)OC[C@H](CNCCCOc1ccc3c(c1)OCO3)O2 [MKC-242]
- extracellular dopamine and norepinephrine [2]: caused an increase

Compound: O=C1CC2(CCCC2)CC(=O)N1CCCCN1CCN(c2ncccn2)CC1 [buspirone]
- extracellular dopamine and norepinephrine [2]: caused an increase

Compound: COc1ccccc1N1CCN(CCN(C(=O)C2CCCCC2)c2ccccn2)CC1.O=C(O)/C=C\C(=O)O [WAY100635, N-[2-[4(2-Methoxyphenyl)-1-piperazinyl]ethyl]-N-2-pyridinylcyclohexanecarboxamide maleate salt]
- summed ALO AIMs, 5-HT1AR study ([1]; WAY100635 0 or 0.5 mg/kg): partially reversed the anti-dyskinetic efficacy of Vilazodone
- spontaneous firing of DRN 5-HT neurons (DRN 5-HT neurons; i.v., 8-OH-DPAT then WAY-100635 100 μg/kg, BFP and D2Rs expressing rats): return to baseline firing was observed
- effect of 5-HT1A blockade on vilazodone's benefit on LIDs ([3]; WAY100635 with vilazodone + L-DOPA): reverses the beneficial effects of vilazodone on LIDs

Compound: CNCCC(Oc1ccc(C(F)(F)F)cc1)c1ccccc1 (centres unmarked) [fluoxetine]
- maximal increase of extracellular 5-HT ([2]; frontal cortex): 165%
- maximal increase of extracellular 5-HT ([2]; ventral hippocampus): 274%

Compound: CN(C)CCC[C@@]1(c2ccc(F)cc2)OCc2cc(C#N)ccc21 [Escitalopram]
- forelimb akinesia and L-DOPA prokinetic / therapeutic efficacy (stepping test) [4]: affected L-DOPA therapeutic efficacy; also recorded: interfered with the therapeutic efficacy of L-DOPA
- LIDs score / severity ([3]; pretreatment with vilazodone 10 mg/kg or escitalopram 12.5 mg/kg before L-DOPA 5 mg/kg, 2 weeks): significantly reduced LIDs severity; also recorded: significant reduction in total LIDs score

Compound: Br.CCCN(CCC)C1CCc2cccc(O)c2C1 (centres unmarked) [8-OH-DPAT, 8-hydroxy-2-(dipropylamino) tetralin hydrobromide]
- extracellular dopamine and norepinephrine [2]: caused an increase
- increase of [35S]GTPγS binding compared to vehicle (5-HT1A receptor): eightfold
- spontaneous firing of DRN 5-HT neurons (DRN 5-HT neurons; rat, in vivo, iv): suppressed the spontaneous firing of a DRN neuron

Compound: N[C@@H](Cc1ccc(O)c(O)c1)C(=O)O [L-DOPA, L-3,4-dihydroxyphenylalanine]
- FAS stepping relative to baseline [5]: significant increases in motor ability on each test day
- fraction that crosses the blood-brain barrier [6]: 5-10%
- DRN levels of DA, DOPAC and DA Turnover ([7]; L-DOPA 6 mg/kg): significantly increased DRN levels of DA, DOPAC and DA Turnover
- 5-HIAA ([7]; Intact): 650 ± 68.9 picograms per milligram wet ti
- 5-HT ([7]; Intact): 241 ± 29.6^ picograms per milligram wet ti
- 5-HT Turnover ([7]; Intact): 2.77 ± 0.15+
- DA ([7]; Intact): 4561 ± 210 picograms per milligram wet ti
- DA Turnover ([7]; Intact): 0.89 ± 0.04
- DOPAC ([7]; Intact): 4051 ± 224 picograms per milligram wet ti
- 5-HIAA ([7]; Lesion): 907 ± 82.5 picograms per milligram wet ti
- 5-HT ([7]; Lesion): 264 ± 39.6 picograms per milligram wet ti
- 5-HT Turnover ([7]; Lesion): 3.93 ± 0.63
- DA ([7]; Lesion): 83.3 ± 7.99 picograms per milligram wet ti
- DA Turnover ([7]; Lesion): 1.42 ± 0.23
- DOPAC ([7]; Lesion): 127 ± 30.7 picograms per milligram wet ti
- FAS motor performance versus baseline [8]: significant improvements on motor performance over baseline
- striatal PPT mRNA ([9]; FIG. 6B): did not increase striatal PPT
- striatal PPE mRNA ([9]; lesioned striata, L-DOPA 6 mg/kg, Vilazodone 20 mg/kg): significantly increased PPE
- striatal PPD mRNA [9, 11]: significantly increased PPD
- striatal c-Fos mRNA [9, 11]: potentiated c-Fos
- delay of onset of AMD [10]: around 8 years
